Results taken from US20060128660A1, “FK228 analogs and methods of making and using the same” (Wisconsin Alumni Research Foundation, priority 2004, published 2006).

How the values were obtained:
Trx = settings: human primary breast and colon tumor tissues, Butler et al. 2002; cited from earlier work
HDAC = assay: Western blot analysis of histones (tetra-AcLys H4) isolated from treated Drosophila S2 cells; type: cell-based
Experimental: Drosophila S2 cells can be cultured in Schneider's medium and grown as previously described by Wade and co-workers for periods ranging from 12 h to 96 h (Ballestar et al., 2001, Eur. J. Biochem. 268: 5397-5406). Cells may then be lysed and nuclear extracts prepared according to Thompson and co-workers (Steffan, 2001, Nature 413: 739-743). Lysates are then be subjected to differing concentrations of HDAC inhibitors and/or reductants (Barlow et al., 2001, Exp. Cell Res. 265: 90-103).
H2B detection was used to ensure equivalent protein loading to each well. […] Cells in all reactions were incubated at ambient temperature in media that contained 20 μM of each respective synthetic agent. Incubations were conducted for either 48 or 72 hours prior to nuclei isolation and processing.
H2B detection was used to ensure equivalent protein loading to each well. […] Lane 1 is a dioxane solvent control and concentrations of “drug” in cell medium are indicated above each lane. All cells were treated for a period of 48 hours at ambient temperature prior to nuclei isolation and processing.
Briefly, 2×10^6 cells in 10 mL medium are brought to 2×10^−5 M in synthetic intermediate and then allowed to incubate at ambient temperature for specified times. […] Histone H2B was detected in each case in order to verify equal protein loadings for each lane.

In the case of `O=C(CCCCCCC(=O)Nc1ccccc1)NO` [SAHA], the “effect on Trx” value (Trx) is listed as “down regulates Trx”.

In the case of `O=C(CCCCCS)NC(CO)CSCc1ccccc1` (stereo not drawn) [compound 33], the “acetylated H4 in histones isolated from treated cells (Western blot)” value (HDAC; 20 μM, 48 or 72 hours, ambient temperature (FIG. 3A)) is reported as “a significant amount of acetylated H4” and the “cellular HDAC inhibition (Western blot data)” value (HDAC; at −20 μM concentration) is reported as “potent cellular HDAC inhibitors”.
